EC50 data for one molecule are collected here from BindingDB's records for patent US9593123 (Hoffmann-La Roche, 2017).

The target in the test is Cannabinoid receptor 1 (Homo sapiens, UniProt P21554).

Some results are limits rather than exact numbers.

Cannabinoid receptor 1, sequence (P21554 whole entry): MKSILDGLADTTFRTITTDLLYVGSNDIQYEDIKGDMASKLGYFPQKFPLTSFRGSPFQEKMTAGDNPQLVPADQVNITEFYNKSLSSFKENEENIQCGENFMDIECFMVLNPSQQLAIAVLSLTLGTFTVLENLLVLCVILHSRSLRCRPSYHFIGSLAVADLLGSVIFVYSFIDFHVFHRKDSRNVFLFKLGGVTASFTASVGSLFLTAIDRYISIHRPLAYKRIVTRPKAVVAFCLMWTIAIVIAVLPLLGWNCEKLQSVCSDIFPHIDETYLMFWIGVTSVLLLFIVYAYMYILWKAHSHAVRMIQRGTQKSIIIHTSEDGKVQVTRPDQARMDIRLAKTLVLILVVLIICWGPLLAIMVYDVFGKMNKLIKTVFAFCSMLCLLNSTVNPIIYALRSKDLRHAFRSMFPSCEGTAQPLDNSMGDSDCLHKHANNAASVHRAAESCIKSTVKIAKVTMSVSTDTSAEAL

By EC50 is commonly meant the concentration that produces a half-maximal response. High values mean a less potent agent, low ones a more potent agent. Molecule `CC(=O)N[C@H]1CCN(c2nc(O[C@@H](C)C(F)(F)F)nc3c2nnn3Cc2ccccc2C(F)(F)F)C1` [US9593123, Example 81] yielded an EC50 above 10 µM.
